Reference: publication PMC8997913, “Lichen Secondary Metabolites Inhibit the Wnt/β-Catenin Pathway in Glioblastoma Cells and Improve the Anticancer Effects of Temozolomide” (Cells, 2022)

Columns and labels:
[1] = tested on: Wnt/β-catenin pathway target genes in U-138 MG cells; test: qPCR of β-catenin and Wnt target genes, U-138 MG; format: cell-based, human; conditions: 48 h; for expression of the Wnt target genes: co-treatment with TMZ 100 µM
Method: (§1) Based on the MTT test, the lichen secondary metabolite concentrations allowing the survival of more than 70% of cells were chosen for the subsequent experiments. The compounds were added as follows: A-172 cells—atranorin 25 µM, caperatic acid 50 µM, physodic acid 25 µM, squamatic acid 25 µM, salazinic acid 50 µM, and lecanoric acid 100 µM; T98G cells—atranorin 50 µM, caperatic acid 100 µM, physodic acid 25 µM, squamatic acid 50 µM, salazinic acid 100 µM, and lecanoric acid 100 µM; U-138 MG cells—atranorin 25 µM, caperatic acid 50 µM, physodic acid 25 µM, squamatic acid 50 µM, salazinic acid 50 µM, and lecanoric acid 100 µM. As far as the TMZ treatment is concerned, it was added in the concentrations depending on the MGMT expression and methylation status, i.e., TMZ 30 µM was added to the A-172 cell line, and TMZ 100 µM was added to both the T98G and U-138 MG cell lines. In the case of the 2D culture, the cells were treated with the compounds 24 h after seeding, whereas, in regard to 3D culture, 5 days were needed to form spheroids. All subsequent analyses were performed 48 h after treatment.
(§2) The Universal RNA Purification Kit (EURx, Gdańsk, Poland) was used for total RNA isolation from the A-172, T98G, and U-138 MG cells, and the Revert-Aid First Strand cDNA Synthesis kit (Fermentas, Burlington, ON, Canada) was chosen for cDNA synthesis. Quantitative real-time PCR (qPCR) was performed using Hot FIREPol EvaGreen qPCR Mix Plus (Solis Biodyne, Tartu, Estonia) and LightCycler 96 (Roche Diagnostics GmbH, Mannheim, Germany). Primer sequences were previously published and their synthesis was performed at the Institute of Biochemistry and Biophysics, Warsaw, Poland. The protocol started with 15 min enzyme activation at 95 °C, followed by 40 cycles of 95 °C for 15 s; appropriate annealing temperature for 20 s; 72 °C for 40 s and the final elongation at 72 °C for 5 min. Melting curve analysis was used to confirm the generation of a single amplification product. TATA box-binding protein (TBP), a component of the DNA-binding protein complex TFIID, served as the endogenous RNA control. The results were expressed as N-fold differences in the gene expression relative to the TBP gene. The ΔΔCt method was used for fold-change calculation. All samples were analyzed in triplicate, and the reaction was repeated at least twice.

A-172 cells = conditions: taken from the literature, ref [5]; read-out: IC50 [uM] ± SEM A-172; cited from earlier work
T98G cells [2] = conditions: taken from the literature, ref [5]; read-out: IC50 [uM] ± SEM T98G; cited from earlier work
T98G cells [3] = test: ROS (superoxide) generation, flow cytometry, T98G; format: cell-based, human; conditions: 48 h
Method: Based on the MTT test, the lichen secondary metabolite concentrations allowing the survival of more than 70% of cells were chosen for the subsequent experiments. The compounds were added as follows: A-172 cells—atranorin 25 µM, caperatic acid 50 µM, physodic acid 25 µM, squamatic acid 25 µM, salazinic acid 50 µM, and lecanoric acid 100 µM; T98G cells—atranorin 50 µM, caperatic acid 100 µM, physodic acid 25 µM, squamatic acid 50 µM, salazinic acid 100 µM, and lecanoric acid 100 µM; U-138 MG cells—atranorin 25 µM, caperatic acid 50 µM, physodic acid 25 µM, squamatic acid 50 µM, salazinic acid 50 µM, and lecanoric acid 100 µM. […]
The intracellular detection of superoxide radicals was detected by flow cytometric analysis after the staining with dihydroethidium, using The Muse® Oxidative Stress Kit (Merck, Darmstadt, Germany). Briefly, 100,000 cells per well were seeded on 6-well plates and after a 24 h incubation they were treated with the analyzed lichen secondary metabolites in the concentrations allowing >70% of cell survival; cells treated with DMSO were used as the negative control. […] The obtained data were evaluated using Muse® Analysis Software ver. […]

[4] = tested on: Wnt/β-catenin pathway target genes in A-172 cells; test: qPCR of β-catenin and Wnt target genes, A-172; format: cell-based, human; conditions: A-172, 48 h
Method: as §1, §2

HCT-116 cells [5] = tested on: HCT-116 cells; set-up: method as in PMID 35190352; conditions: HCT-116, ref [30]; cited from earlier work
[6] = tested on: MCF-7 breast cancer cells; set-up: method as in PMID 32096436; conditions: MCF-7, ref [31]; read-out: IC50 concentration; cited from earlier work
HCT-116 cells [7] = tested on: HCT-116 cells; set-up: method as in PMID 35190352; conditions: atranorin at 30 µg/mL, ref [30]; cited from earlier work
[8] = tested on: MDA-MB-231 breast cancer cells; set-up: method as in PMID 32096436; conditions: MDA-MB-231, ref [31]; read-out: IC50 concentration; cited from earlier work
HCT-116 cells [9] = tested on: HCT-116 cells; set-up: method as in PMID 35190352; conditions: 30 µg/mL, ref [30]; cited from earlier work
NIH3T3 cells = tested on: NIH3T3 cells; set-up: method as in PMID 35190352; conditions: NIH3T3, ref [30]; cited from earlier work
HeLa cells = tested on: HeLa cells; set-up: method as in PMID 35190352; conditions: ref [30]; cited from earlier work
[10] = mRNA vs DMSO control, single agent
[11] = mRNA vs DMSO control, single agent, (TMZ 30 µM)

Structure (SMILES) | expression of the Wnt target genes [1] | Axin2 expression [4, 11] | Axin2 expression [1, 10] | cell cycle distribution (HCT-116 cells [5]) | apoptosis induction (HCT-116 cells [7]) | viability of HCT-116 cells (HCT-116 cells [9]) | further results
Cc1cc(O)c(C=O)c2c1C(=O)Oc1c(CO)c(O)c3c(c1O2)C(O)OC3=O (stereo not shown) [Salazinic acid] | huge downregulatory effect |  |  |  |  |  | BIRC5 expression [1, 10]: diminished; CCND1 expression [1, 10]: downregulated CCND1 expression by around half; IC50 (A-172 cells): > 100 µM; IC50 (T98G cells [2]): > 100 µM
COc1cc(C)c(C(=O)Oc2cc(C)c(C(=O)O)c(O)c2C)c(O)c1C(=O)O [Squamatic acid] |  | downregulated | downregulated |  |  |  | oxidative stress (superoxide) induction (T98G cells [3]): induce oxidative stress; CCND1 expression ([4]; co-treatment with TMZ 30 µM): upregulation; BIRC5 expression [4, 10]: diminished
CCCCCCCCCCCCCCC(C(=O)O)C(O)(CC(=O)OC)C(=O)O (stereo not shown) [Caperatic acid] | huge downregulatory effect | downregulated | downregulated |  |  |  | NEDD9 expression [4, 10]: downregulated; NEDD9 expression ([1]; mRNA vs DMSO control, single agent, TMZ 100 µM): downregulated
COC(=O)c1c(C)cc(OC(=O)c2c(C)cc(O)c(C=O)c2O)c(C)c1O [Atranorin] |  | downregulated | downregulated | no significant effect | significantly induced apoptosis | significantly reduced | IC50 [6]: 7.55 ± 1.2 µM; IC50 [8]: 5.36 ± 0.85 µM
Cc1cc(OC(=O)c2c(C)cc(O)cc2O)cc(O)c1C(=O)O [Lecanoric acid] |  |  |  | cell cycle arrest in the G2 phase | did not induce apoptosis | significantly reduced | c-MYC expression [4, 11]: upregulated; cell cycle distribution (NIH3T3 cells): cell cycle arrest in the G2 phase; cell cycle distribution (HeLa cells): cell cycle arrest in the G2 phase
